This note sets out measurements from patent US4298745A, “Hydantoin derivatives” (Beecham Group Limited, priority 1978, dated 1981).

pIC50: −log10 of the molar value. Read-outs that look alike come from different tables or passages of the source.

Assay [1] deals with 5-hydroxytryptamine induced bronchoconstriction. The experiment in a line: inhibition of 5-hydroxytryptamine induced bronchoconstriction in the anaesthetised, artificially respired guinea pig (Konzett-Rossler preparation). In kind it is in vivo. Particulars: for ED50: Cavia porcellus, iv. The protocol: 1. The compounds were examined for their ability to inhibit 5-hydroxytryptamine induced bronchoconstriction in the anaesthetised, artificially respired guinea pig (Konzett-Rossler preparation) The compounds were administered intravenously.
The test for bronchodilator activity used in `Bronchodilator activity` method 1 above was used with three test animals for the comparison testing of Compound 5 against the compound 5-(6-carboxyhexyl)-1-(3-hydroxy-4,4-dimethyloctyl)hydantoin (A) highlighted in German Offenlegungsschrift No. 2724948 for its anti-bronchoconstriction activity.

The subject of assay [2] is collagen induced platelet aggregation in human platelet rich plasma. The assay can be described thus: inhibition of platelet aggregation induced in vitro by collagen in human platelet rich plasma. In kind it is cell-based. Particulars: Table C, read-out: IC50 against collagen induced aggregation. The text has this:
The compounds were examined for their ability to inhibit platelet aggregation induced in vitro by collagen in human platelet rich plasma.

Assay [3] concerns arrhythmia in electrostimulation of the right ventricle. The experiment in a line: anti-arrhythmic activity: increase of the voltage required to produce arrhythmia in electrostimulation of the right ventricle. In kind it is in vivo, guinea pig. The settings on record: Table D; anaesthetised guinea pigs, 32.0 mg/kg I.d.; p<0.5 (so in the source). From the text:
Compound 5 was examined for its ability to increase the voltage required to produce arrhythmia in electrostimulation of the right ventricle in anaesthatised guinea pigs.

Assay [4] concerns bronchoconstriction induced by a histamine aerosol. The assay can be described thus: protection of conscious guinea pigs against bronchoconstriction induced by a histamine aerosol (Herxheimer test). In kind it is in vivo, guinea pig. Particulars: Table B, compound by aerosol. The text has this: 2. The compounds were also examined for their ability to protect conscious guinea pigs against bronchoconstriction induced by a histamine aerosol (Herxheimer test). In these experiments the compounds were adminstered by aerosol.

Assay [5] relates to indomethacin induced gastric damage. The assay can be described thus: anti-ulcer activity: inhibition of indomethacin induced gastric damage in the rat. In kind it is in vivo. Particulars: 100 mg/kg orally. The protocol:
Anti-ulcer activity was assessed by the inhibition of indomethacin induced gastric damage in the rat according to the method of Eleghe (1974) Israeli J. Med. Sci. IO, 1451. Rats were starved overnight, given 15 mg/kg indomethacin subcutaneously and sacrificed 4 hours later. Stomachs were reflated with n.saline, cut along the greater curvature pinned out and scored for gastric damage by the following system.
Score 1-3--according to degree of erythema and slight haemorrhage.
Score 4-6--according to degree of mucosal erosion.
Score 7-9--according to depth of gastric damage.
Groups of 7 rats were used for each treatment and the test compound or vehicle were administered 30 minutes prior to giving the indomethacin. Dose of test compound was 100 mg/kg orally and control groups receiving vehicle only were set up simultaneously. Mean values for each treatment were obtained using the above scoring system and the Mann Witney test applied for significance of difference between the values obtained with the treatments.

The mark [6] stands for this setting: Table A, anaesthetised guinea pig, i.v., read-out: ED50 against 5-hydroxytryptamine induced bronchoconstriction.
The mark [7] stands for this setting: Table E, comparison testing, three test animals, guinea pig, read-out: ED50 (mean).

Regarding `CCCCCCC(C)(O)CCN1C(=O)N(C)C(=O)C1CC=CCCCC(=O)O` (stereo not drawn) [Compound 5], the ED50 (as a rule, the dose at which the effect has come halfway, by size or by number of responders) in assay [1] (setting [6]) was determined as 1.3 µg/kg; in assay [1] (setting [7]), 1.2 µg/kg. Besides, the “bronchodilator potency of compound 5 relative to Compound A” value in assay [1] (comparison testing, Table E) was “at least an order of magnitude more potent”. Moreover, the pIC50 – broadly, the IC50 on a negative log10 scale, so that one unit is a factor of ten – in assay [2] is 4.66. The “% increase of voltage ± SEM” value in assay [3] is 43.0 ± 7.0%. The “Activity, Aerosol administration (Herxheimer test)” value in assay [4] stood at 1 µg/mL.

For `CCCCC(C)C(C)(O)CCN1C(=O)N(C)C(=O)C1CC=CCCCC(=O)O` (stereo not drawn) [Compound 4, 1-(3'-hydroxy-3'-methyl-4'-methyl-n-octyl)-3-methyl-5(6"-carboxy-n-hex-2"- enyl)hydantoin], the ED50 in assay [1] (setting [6]) stood at 0.6 µg/kg. Also, the “Mean Score ± S.E. of mean (gastric damage)” value in assay [5] (30 minutes before 15 mg/kg indomethacin s.c., score 1-9, vehicle control 4.14±0.59, p<0.01) is given as 0.43±0.20. Besides, the “anti-ulcer activity (in words)” value in assay [5] (compared with vehicle only treatment) was “reduced the mean ulcer score and therefore has significant anti-ulcer activity”. Besides, in assay [2], the pIC50 was 4.55. In assay [4], the “Activity, Aerosol administration (Herxheimer test)” value was 0.5 µg/mL.

Turning to `CCCCC(C)(C)C(O)CCN1C(=O)NC(=O)C1CCCCCCC(=O)O` (stereo not drawn) [Compound A, 5-(6-carboxyhexyl)-1-(3-hydroxy-4,4-dimethyloctyl)hydantoin, reference compound], the ED50 in assay [1] (setting [7]) is 24.6 µg/kg.
